Test results reported in the RepoRT retention time repository (doi:10.1021/acs.analchem.1c00972).

Key:
[1] = RP, Waters ACQUITY UPLC BEH C18, 100 × 1 mm, 1.7 µm, 50 °C, 0.3 mL/min, estimated dead time 0.17 min; A: water + 10 mM ammonium bicarbonate; B: 10% water + 90% methanol + 10 mM ammonium bicarbonate; gradient (min/%B) 0/0 15/100 21/100 22/0 30/0; details: stereoisomer not certain
[2] = RP, Waters ACQUITY UPLC BEH C18, 100 × 1 mm, 1.7 µm, 50 °C, 0.3 mL/min, estimated dead time 0.17 min; A: water + 0.1% formic acid + 20 mM ammonium formate; B: methanol + 0.1% formic acid + 20 mM ammonium formate; gradient (min/%B) 0/0 15/100 21/100 22/0 30/0; details: stereoisomer not certain

| Compound | LC retention time [1] | LC retention time [2] |
| --- | --- | --- |
| O=c1[nH]sc2ccccc12 [1,2-Benzisothiazolinone] | 6.97 min |  |
| FC(F)(F)c1cccc(N2CCNCC2)c1 [1-(3-Trifluoromethylphenyl)-piperazine] | 10.6 min |  |
| CNC(=O)Nc1ccc(C(C)C)cc1 [1-(4-Isopropylphenyl)-3-methyl-Harnstoff] | 13.1 min |  |
| CCCCCCS(=O)(=O)O [1-Hexanesulfonic acid] | 9.17 min |  |
| CC(C)C(=O)OCC(C)(C)C(OC(=O)C(C)C)C(C)C (stereo unspecified) [2,2,4-Trimethyl-1,3-pentanediol diisobutyrate] | 17.4 min |  |
| CC1(C)CC(=O)CC(C)(C)N1 [2,2,6,6-Tetramethyl-4 piperidone] | 7.87 min |  |
| CC1(C)CC(O)CC(C)(C)N1 [2,2,6,6-Tetramethylpiperidin-4-ol] | 4.21 min |  |
| Cc1ccc(C)c(O)c1C [2,3,6-Trimethylphenol] | 13.3 min |  |
| CC(Oc1c(Cl)cc(Cl)cc1Cl)C(=O)O (stereo unspecified) [2,4,6-Fenoprop] | 2 min |  |
| Oc1ccc(Cl)cc1Cl [2,4-Dichlorophenol] | 12.3 min |  |
| Cc1ccc(NC=O)c(C)c1 [2,4-Dimethylformanilide] | 11.2 min |  |
| Cc1cc(C(C)(C)C)c(O)c(C(C)(C)C)c1 [2,6-Di-tert.-butyl-4-methylphenol] | 18.1 min |  |
| Cc1cccc(C)c1O [2,6-Dimethylphenol] | 12 min |  |
| OCCc1ccccn1 [2-(2-Pyridyl)ethanol] | 6.8 min |  |
| Nc1ccccc1Cl [2-Chloroaniline] | 10.6 min |  |
| O=C(O)C=Cc1ccccc1O [2-Hydroxycinnamic acid] | 5 min |  |
| CCCCCSCCOCCOCCOCCO [3,6,9-Trioxa-12-thia-heptadecanol] | 14.6 min |  |
| Nc1cccc(Cl)c1 [3-Chloroaniline] | 10.6 min |  |
| Cc1cc(Cl)ccc1N [4-Chloro-2-methylaniline] | 12.3 min |  |
| Nc1ccc(Cl)cc1 [4-Chloroaniline] | 10.6 min |  |
| CNC(=O)ON=CC(C)(C)S(C)(=O)=O [Aldicarb Sulfone] | 9.41 min |  |
| CNC(=O)Oc1ccc(N(C)C)c(C)c1 [Aminocarb] | 12.1 min |  |
| Nc1ccccc1C(=O)O [Anthranilic acid] | 2.1 min |  |
| CCNc1nc(NC(C)C)nc(OC)n1 [Atraton] | 12.4 min |  |
| CCNc1nc(Cl)nc(NC(C)C)n1 [Atrazine] | 13.1 min |  |
| COC(=O)C(C)N(C(=O)Cc1ccccc1)c1c(C)cccc1C (stereo unspecified) [Benalaxyl] | 16 min |  |
| CNC(=O)Oc1cccc2c1OC(C)(C)O2 [Bendiocarb] | 11.9 min |  |

| Compound | LC retention time [1] | LC retention time [2] |
| --- | --- | --- |
| Oc1ccc(C(c2ccccc2)(c2ccccc2)c2ccc(O)cc2)cc1 [Bisphenol BP] | 15.9 min |  |
| CCC(C)(c1ccc(O)cc1)c1ccc(O)cc1 [Bisphenol B] | 14.3 min |  |
| Cc1cc(C(C)(C)c2ccc(O)c(C)c2)ccc1O [Bisphenol C] | 13.9 min |  |
| CC(C)(c1ccc(O)c(-c2ccccc2)c1)c1ccc(O)c(-c2ccccc2)c1 [Bisphenol PH] | 17.1 min |  |
| CNC(=O)ON=C(C)C(C)S(C)(=O)=O (stereo unspecified) [Butoxycarboxim] | 9.41 min |  |
| CCCC(C)(COC(N)=O)COC(=O)NC(C)C (stereo unspecified) [Carisoprodol] | 13.3 min |  |
| CC(N)C(O)c1ccccc1 (stereo unspecified) [Cathine] | 8.36 min |  |
| CC1(C)CON(Cc2ccccc2Cl)C1=O [Clomazone] | 13.9 min |  |
| CCOP(=S)(OCC)Oc1ccc2c(C)c(Cl)c(=O)oc2c1 [Coumaphos] | 15.9 min |  |
| CC(=O)OCC12CCC(C)=CC1OC1C(O)C(OC(C)=O)C2(C)C12CO2 (stereo unspecified) [Diacetoxyscirpenol] | 12.1 min |  |
| CN1C(=O)CN=C(c2ccccc2)c2cc(Cl)ccc21 [Diazepam] | 14.6 min |  |
| COP(=O)(OC)OC(C)=CC(=O)N(C)C [Dicrotophos] | 8.69 min |  |
| COCC(C)N(C(=O)CCl)c1c(C)csc1C (stereo unspecified) [Dimethenamid] | 14.4 min |  |
| CC(C)(C)C(O)C(=Cc1ccc(Cl)cc1Cl)n1cncn1 (stereo unspecified) [Diniconazole] | 16.5 min |  |
| CC=C1N(C)C(C)CC1(c1ccccc1)c1ccccc1 (stereo unspecified) [EDDP] | 17.4 min |  |
| CNC(C)C(O)c1ccccc1 (stereo unspecified) [Ephedrine] | 13.1 min |  |
| CCOP(=S)(OCC)SCSP(=S)(OCC)OCC [Ethion] | 17.3 min |  |
| CCOP(=S)(OCC)SCn1nnc2ccccc2c1=O [Ethyl azinphos] | 15 min |  |
| CC1(c2ccc(Oc3ccccc3)cc2)OC(=O)N(Nc2ccccc2)C1=O (stereo unspecified) [Famoxadone] | 16.1 min |  |
| N#CC(CCc1ccc(Cl)cc1)(Cn1cncn1)c1ccccc1 (stereo unspecified) [Fenbuconazole] | 15.5 min |  |
| CCC(C)c1ccccc1OC(=O)NC (stereo unspecified) [Fenobucarb] | 15 min |  |
| N#Cc1c[nH]cc1-c1cccc2c1OC(F)(F)O2 [Fludioxonil] | 14.4 min |  |
| CC1C(c2ccc(Cl)cc2)SC(=O)N1C(=O)NC1CCCCC1 (stereo unspecified) [Hexythiazox] | 17.6 min |  |
| COc1ccc2c3c1OC1C(=O)CCC4C(C2)N(C)CCC314 (stereo unspecified) [Hydrocodone] | 12.1 min |  |
| NC1=NCCN1Cc1ccc(Cl)nc1 [Imidacloprid-guanidine] | 6.72 min |  |
| NCCc1ccc(O)cc1 [tyramine] |  | 2.5 min |

Further lines, with some results ahead:

| LC retention time [1] | Compound | LC retention time [2] |
| --- | --- | --- |
| 15.4 min | CNCC(c1ccc(O)cc1)C1(O)CCCCC1 (racemic) [rac N,O-Didesmethyl Venlafaxine] |  |
| 10.4 min | NC12CC3CC(C1)CC(O)(C3)C2 [3-Amino-1-adamantanol] |  |
| 11.2 min | O=C(O)c1cccc(Oc2ccccc2)c1 [3-Phenoxybenzoic acid] |  |
| 4.27 min | COc1ccc(S(=O)(=O)O)cc1 [4-Methoxybenzenesulfonic acid] |  |
| 4.61 min | COc1cc([N+](=O)[O-])ccc1O [4-Nitroguaiacol] |  |
| 5.99 min | Nc1[nH]c(=O)ncc1F [5-Fluorocytosine] |  |
| 14.3 min | C#CC1(O)CCC2C3CCc4cc(O)ccc4C3CCC21C (stereo not drawn) [17-alpha-Ethinylestradiol] |  |
| 5.35 min | CC(=O)Nc1ccc(O)cc1 [Acetaminophen] |  |
| 10.5 min | NC12CC3CC(CC(C3)C1)C2 [Amantadine] |  |
| 17.4 min | CN(C)CCC=C1c2ccccc2CCc2ccccc21 [Amitriptyline] |  |
| 9.52 min | CCOc1nc2cccc(C(=O)O)c2n1Cc1ccc(-c2ccccc2-c2noc(=O)[nH]2)cc1 [Azilsartan] |  |
| 12.8 min | NS(=O)(=O)c1ccccc1 [Benzenesulfonamide] |  |
| 16.3 min | O=C(OCc1ccccc1)c1ccccc1 [Benzoic acid benzyl ester] |  |
| 11.1 min | c1ccc2scnc2c1 [Benzothiazol] |  |
| 16.3 min | CCON=C(OC(=O)c1ccccc1)c1c(OC)ccc(Cl)c1OC [Benzoximate] |  |
| 17 min | C=C(c1ccc(C(=O)O)cc1)c1cc2c(cc1C)C(C)(C)CCC2(C)C [Bexarotene] |  |
| 14 min | CCCCOC(=O)C=Cc1ccccc1 [Butyl cinnamate] |  |
| 7.78 min | Cn1c(=O)c2c(ncn2C)n(C)c1=O [Caffeine] |  |
| 12.6 min | NC(=O)N1c2ccccc2C=Cc2ccccc21 [Carbamazepin] |  |

| LC retention time [1] | Compound | LC retention time [2] |
| --- | --- | --- |
| 7.52 min | CC1=C(C(=O)O)N2C(=O)C(NC(=O)C(N)c3ccccc3)C2SC1 (stereo unspecified) [Cefalexin] |  |
| 5.67 min | C=CC1=C(C(=O)O)N2C(=O)C(NC(=O)C(=NOCC(=O)O)c3csc(N)n3)C2SC1 (stereo unspecified) [Cefixim] |  |
| 8.34 min | CCN1CCN(C(=O)NC(C(=O)NC2C(=O)N3C(C(=O)O)=C(CSc4nnnn4C)CSC23)c2ccc(O)cc2)C(=O)C1=O (stereo unspecified) [Cefoperazone] |  |
| 11.4 min | c1ccc2ncccc2c1 [Chinolin] |  |
| 9.67 min | NS(=O)(=O)c1cc(C2(O)NC(=O)c3ccccc32)ccc1Cl (stereo unspecified) [Chlorthalidon] |  |
| 14.8 min | CN(C)CCCC1(c2ccc(F)cc2)OCc2cc(C#N)ccc21 (stereo unspecified) [Citalopram] |  |
| 13.4 min | CCN(CC)C(=O)c1cccc(C)c1 [DEET] |  |
| 9.95 min | CC(C)Nc1nc(N)nc(Cl)n1 [Desethylatrazine] |  |
| 11.5 min | CCC(C)Nc1nc(N)nc(Cl)n1 (stereo unspecified) [Desethylsebutylazin] |  |
| 8.17 min | CCNc1nc(N)nc(Cl)n1 [Desisopropylatrazine] |  |
| 13.9 min | CNCC(O)c1ccc(O)c(O)c1 (stereo unspecified) [Epinephrine] |  |
| 11.4 min | CC12CCC3c4ccc(O)cc4CCC3C1CC(O)C2O (stereo unspecified) [Estriol] |  |
| 14.2 min | CC12CCC3c4ccc(O)cc4CCC3C1CCC2=O (stereo unspecified) [Estrone] |  |
| 8.12 min | CCC(CO)NCCNC(CC)CO (stereo unspecified) [Ethambutol] |  |
| 13.5 min | c1ccc(OCCOc2ccccc2)cc1 [Ethylene glycol diphenylether] |  |
| 13.5 min | O=S(=O)(O)c1ccccc1C=Cc1ccc(-c2ccc(C=Cc3ccccc3S(=O)(=O)O)cc2)cc1 [Fluorescent brightener 351] |  |
| 10.4 min | COC(=O)c1ccc(C(F)(F)F)nc1S(=O)(=O)NC(=O)Nc1nc(OC)cc(OC)n1 [Flupyrsulfuron-methyl] |  |
| 18.2 min | CC1COCc2cc3c(cc21)C(C)(C)C(C)C3(C)C (stereo unspecified) [Galaxolide] |  |
| 3.38 min | Nc1ccn(C2OC(CO)C(O)C2(F)F)c(=O)n1 (stereo unspecified) [Gemcitabine] |  |
